{"source": "patent US11203636B2", "about": "“Treatment of existing left ventricular heart failure” (YALE UNIVERSITY, priority 2017, dated 2021)", "key": {"[1]": {"test_system": "NKCC2, ENaC-beta, and NCC proteins in mouse M1 CCD cell line", "test": "Expression of NKCC2, ENaC-beta and NCC in M1 CCD cells after treatment with IL-6 and/or Spironolactone (immunoblotting)", "format": "cell-based", "conditions": "FIGS. 5A-5C", "experimental": "(§1) The mouse M1 CCD cell line (American Type Culture Collection (ATCC), Cat #CRL-2038) was maintained the cell culture medium containing equal amount of DMEM (Sigma-Aldrich, Cat #D6046) and Han F12 (Sigma-Aldrich, Cat #11765-047), supplemented with 5% Fetal Bovine Serum (FBS), 1% Penicillin-Streptomycin (Thermo Fisher Scientific, Cat #15140-122), 1% Insulin-Transferrin-Selenium (Thermo Fisher Scientific, Cat #51500-056) and 100 nM Dexamethasone (Sigma-Aldrich, Cat #D4902-100MG).\n(§2) M1 CCD cells were seeded at 1 million/well in 6-well plate in the cell culture medium, and incubated overnight in a 37° C., 5% CO2 incubator on Day 0. The cell culture medium was changed to DMEM/F12 serum-free medium on Day 1 and the cells were incubated overnight in a 37° C., 5% CO2 incubator. On Day 2, the serum-free medium was removed and the cell culture medium was added to each well. Spironolactone (Selleckchem, Cat #54054) was added at the final concentration of 1 μM or 100 μM 10 min before the addition of IL-6 (Sigma-Aldrich, Cat #SRP3096-20UG) at the final concentration of 10 ng/mL, 100 ng/mL, or 500 ng/mL. A control well without Spironolactone or IL-6 was included. […] The sample were analyzed by immunoblotting using anti-NKCC2 antibody (Millipore, Cat #AB3562P), anti-ENaC-beta antibody (Millipore, Cat #AB3532P), or anti-NCC antibody (Millipore, Cat #AB3553) and the protein expression was quantified. […]"}, "[2]": {"test_system": "NKCC2, ENaC-beta, and NCC proteins in mouse M1 CCD cell line", "test": "Expression of NKCC2, ENaC-beta and NCC in M1 CCD cells after treatment with IL-6 and/or Ruxolitinib (immunoblotting)", "format": "cell-based", "conditions": "IL-6 10, 100 or 500 ng/mL, 24 hours, FIGS. 4A-4C", "experimental": "as §1\nas §2, with “Ruxolitinib” for “Spironolactone”, “#51378)” for “#54054)”"}}, "data": [{"compound": "CC(=O)S[C@@H]1CC2=CC(=O)CC[C@]2(C)[C@H]2CC[C@@]3(C)[C@@H](CC[C@@]34CCC(=O)O4)[C@H]12", "note": "[Spironolactone]", "values": [{"measurement": "effect of Spironolactone on the IL-6 effect on ion transporter proteins (NKCC2, ENaC-beta, NCC)", "setting": "[1]; Spironolactone 1 μM or 100 μM added 10 min before IL-6, 24 hours", "value": "blocked the effect of IL-6 on the ion transporter proteins"}]}, {"compound": "IL-6: pro-inflammatory cytokine added to cells (Sigma-Aldrich, Cat #SRP3096-20UG)", "values": [{"measurement": "expression of NKCC2, ENaC-beta, and NCC after treatment of IL-6", "setting": "[1]; IL-6 10, 100 or 500 ng/mL, 24 hours, immunoblotting", "value": "increased the expression of NKCC2, ENaC-beta, and NCC"}, {"measurement": "expression of NKCC2, ENaC-beta, and NCC after treatment of IL-6", "setting": "[2]", "value": "increased the expression of NKCC2, ENaC-beta, and NCC"}]}]}
